Reference: publication PMC12078564 (Nature Communications, 2025)

How the values were obtained:
CtCGT = assay: HPLC C-glycosylation assay, Michaelis-Menten fit; type: biochemical, Carthamus tinctorius; details: read-out: apparent Km; saturated UDP-Glc as sugar donor
[1] = biological target: Ct2OGD1 (2-oxoglutarate-dependent dioxygenase), purified recombinant, NHS-labelled (Carthamus tinctorius); assay: MST

Compound | Km (CtCGT) [µM] | Kd [1] [nM]
O=C(CCc1ccc(O)cc1)c1c(O)cc(O)c([C@@H]2O[C@H](CO)[C@@H](O)[C@H](O)[C@H]2O)c1O [1a, nothofagin] | 284 | 
O=C(CCc1ccc(O)cc1)c1c(O)cc(O)cc1O [compound 1, phloretin] | 1.86 | 
CtCGT (flavonoid di-C-glycosyltransferase, UGT708U8), purified recombinant (enzyme) |  | 541
